One data set deals with L. infantum amastigotes. In words: Ex vivo murine splenic explant culture, intramacrophage amastigotes. Type of data set: cell-based. Conditions: Leishmania infantum, Hec50; intramacrophage amastigotes in splenic explants, 96 h, EC50 ± SD. On the procedure: The effect of the new quinolinylphosphonate derivatives 7 synthesized was assessed on both free-living promastigotes and intramacrophage amastigotes of L. infantum as it is described in experimental protocols. Primary cultures of intramacrophage amastigotes were obtained from splenic explants from 6-weeks infected Balb/c mice with L. infantum-iRFP promastigotes. The infrared fluorescence emitted by both stage forms of the parasite was used as viability criterium, using 0.5% DMSO as negative control (100% viability) and […] AMB as a positive control (0% viability).
The EC50 values of compounds against the amastigote forms were calculated using a cell suspension obtained from spleens extracted from BALB/c mice. Mice had been infected previously with iRFP L. infantum metacyclic promastigotes and sacrificed five weeks after infection. To obtain the cell suspension containing amastigotes, spleens washed with cold phosphate-buffered saline (PBS), were cut into pieces, and incubated with 5 mL of 2 mg/mL collagenase D (Sigma, Darmstadt, Germany), which was prepared in buffer (10 mM HEPES, pH 7.4, 150 mM NaCl, 5 mM KCl, 1 mM MgCl2 and 1.8 mM CaCl2) for 20 min. Subsequently, these cells were passed through a 100 µm cell strainer, collected by centrifugation (500× g for 7 min at 4 °C), washed twice with PBS, and suspended in RPMI medium (Gibco, Thermo Fisher Scientific, MA, USA) supplemented with 10 mM HEPES, 1 mM sodium pyruvate, 1xRPMI 1640 vitamin mix, 10% (v/v) FBS, 50 U/mL penicillin and 50 µg/mL streptomycin, at 37 °C under a 5% CO2 atmosphere.
To assay the effect of the different compounds against amastigotes, which infect splenic cells, these cells were seeded to confluence into 384-well black optical bottom plates (Thermo Scientific, Waltham, MA, USA) in addition to different concentrations of compound to each well. The viability of amastigotes was calculated by recording their fluorescence at 708 nm in an Odyssey (Li-Cor, NE, USA) infrared imaging system, after 96 h of exposure. Plots of the infrared fluorescence against the concentrations of tested compounds were fitted by nonlinear analysis using the Sigma Plot 10.1 statistical package and used to calculate EC50 values. As well as promastigotes viability, the assays were performed in triplicate.

Data set [1] deals with SKOV3 (human ovarian carcinoma). In words: CCK-8 cytotoxicity assay, SKOV3. Type of data set: cell-based. Conditions: SK-OV-3, 48 h, read-out: Cytotoxicity IC50 Ovarian SKOV3. On the procedure:
(§1) The cytotoxicity of the newly synthesized quinolinylphosphonates 7 was evaluated in vitro by testing their antiproliferative activities against several human cancer cell lines: A549 (human lung adenocarcinoma cells), SKOV3 (human ovarian carcinoma), and HEK293 (human embryonic kidney). In order to analyze the selective cytotoxicity facing exclusively cancerous cell lines, cytotoxicity against non-cancerous cell lines (MRC-5, lung fibroblast cells) was also evaluated. Cell counting kit (CCK-8) assay was employed to assess growth inhibition and, cell proliferation inhibitory activities of compounds that are listed in Table 1 as IC50 values. […] According to the data presented in Table 1, in general, all these phosphorated derivatives present higher selective cytotoxicity in the A549 cell line than in the other two cell lines, SKOV3 and HEK293, although slight differences are observed compared to human ovarian carcinoma (SKOV3).
(§2) Cells were cultured according to the supplier’s instructions, A549 (ATCC® CCL-185), SKOV3 (ATCC® HTB-77), HEK293 (CLS GmbH), MRC-5 (ATCC® CCL-171™). Cells were seeded in 96-well plates at a density of 2–2.5 × 10^3 cells per well and incubated overnight in 0.1 mL of media supplied with 10% Fetal Bovine Serum (Lonza, Basel, Switzerland) in a 5% CO2 incubator at 37 °C. On day 2, drugs (concentration between 0.5–50 μM) were added and samples were incubated for 48 h. After treatment, 10 μL of cell counting kit-8 was added to each well for an additional 2 h incubation at 37 °C. The absorbance of each well was determined by an Automatic Elisa Reader System at 450 nm wavelength. CPT was purchased from Sigma-Aldrich and used as a positive control.
For orientation: Formazan colour is commonly taken as a measure of viable cells.

The nature of data set [2]: CCK-8 cytotoxicity assay, MRC-5 non-cancerous cells. Type of data set: cell-based. Conditions: human, MRC-5 non-malignant lung fibroblasts. On the procedure: as §1, §2
A further data set has as its system murine splenocytes. In words: Splenocyte viability, Alamar Blue. Type of data set: cell-based, BALB/c mice. Conditions: for IC50: Mus musculus, Splenocyte, read-out: IC50 Splenocites; for SI (selectivity index): ratio IC50 splenic cells / EC50 amastigotes. On the procedure: The viability of splenocytes cells against the different compounds was measured using the Alamar Blue staining method (Invitrogen, MA, USA). For this purpose, these cells were obtained following the protocol indicated in the previous section, from uninfected mice. Plots of absorbance of viable cells (obtained following manufacturer’s recommendations of Alamar Blue) vs compounds concentration were used to calculate CC50 values. Plots were fitted by nonlinear analysis using the Sigma Plot 10.1 statistical package. The assays were performed by triplicate.
The selectivity index for each compound was calculated as the ratio between the IC50 value for splenic cells and the EC50 value for amastigotes.
On the technique in general: Alamar Blue is a resazurin reagent that responds to reducing activity.

Some results are limits rather than exact numbers.

For orientation: EC50 means the midpoint of the concentration-response curve. One may read the IC50 as the concentration needed to halve the response being measured. By melting point is commonly meant the temperature of the solid-liquid transition.

`Cc1ccc(-c2cc(-c3ccc(F)cc3)nc3c(P(=O)(OC(C)C)OC(C)C)cccc23)cc1` [7p, Diisopropyl (2-(4-fluorophenyl)-4-(p-tolyl)quinolin-8-yl)phosphonate] displayed a melting point of 121 to 123 °C. In the data set with L. infantum amastigotes, this compound came in with an EC50 of 24.3 ± 2.53 µM. Further, the IC50 in data set [1] turned out to be 12.1 ± 1.68 µM. This compound returned an IC50 at 48 h in data set [2] greater than 50 µM. Further, in the data set on murine splenocytes, the half-maximal inhibitory concentration (IC50) stood at 21.2 ± 3.5 µM and the “SI (selectivity index)” value was 0.9.

For `Cc1ccc(-c2cc(-c3ccc(F)c(F)c3)nc3c(P(=O)(OC(C)C)OC(C)C)cccc23)cc1` [7q, Diisopropyl (2-(3,4-difluorophenyl)-4-(p-tolyl)quinolin-8-yl)phosphonate], the melting point fell in the range of 140 to 142 °C. The compound also showed an EC50 in the data set on L. infantum amastigotes of 13.9 ± 3.65 µM. Besides, in data set [1], the IC50 is 4.67 ± 1.5 µM. Also, in data set [2], the IC50 at 48 h is greater than 50 µM. Besides, in the data set on murine splenocytes, the IC50 came to 28.3 ± 9.16 µM and the “SI (selectivity index)” value stood at 2.

Consider `CCOP(=O)(OCC)c1ccc2nc(-c3ccc(F)cc3)cc(-c3ccccc3)c2c1` [7r, Diethyl (2-(4-fluorophenyl)-4-phenylquinolin-6-yl)phosphonate], for which the melting point fell in the range of 137 to 139 °C. In addition, a half-maximal response with L. infantum amastigotes (EC50) required 29.2 ± 14 µM. The concentration for half-maximal inhibition (IC50) in data set [1] came out at 3.03 ± 1.24 µM. Further, the IC50 at 48 h in data set [2] is greater than 50 µM. In the data set with murine splenocytes, the IC50 was 28.1 ± 1.23 µM and the “SI (selectivity index)” value is 1.

With `CCOP(=O)(OCC)c1ccc2nc(-c3ccc(F)c(F)c3)cc(-c3ccccc3)c2c1` [7s, Diethyl (2-(3,4-difluorophenyl)-4-phenylquinolin-6-yl)phosphonate], the melting point lay in the range of 134 to 136 °C. In the data set on L. infantum amastigotes, this compound yielded an EC50 of 14.2 ± 2.83 µM. The half-maximal inhibitory concentration (IC50) in data set [1] is greater than 50 µM. The same compound showed an IC50 at 48 h in data set [2] greater than 50 µM. In the data set with murine splenocytes, the IC50 was determined as 26.2 ± 0.51 µM and the “SI (selectivity index)” value was determined as 1.8.

`CCOP(=O)(OCC)c1ccc2nc(-c3ccc(F)cc3)cc(-c3ccc(F)cc3)c2c1` [7t, Diethyl (2,4-bis(4-fluorophenyl)quinolin-6-yl)phosphonate] showed a melting point of 161 to 164 °C. The concentration for a half-maximal effect (EC50) in the data set on L. infantum amastigotes worked out at 31.5 ± 2.71 µM. Besides, in data set [1], the concentration for half-maximal inhibition (IC50) was greater than 50 µM. Also, the IC50 at 48 h in data set [2] is greater than 50 µM. In the data set with murine splenocytes, the concentration for half-maximal inhibition (IC50) was determined as 45 ± 10.2 µM and the “SI (selectivity index)” value was determined as 1.4.

For `CCOP(=O)(OCC)c1ccc2nc(-c3ccc(F)c(F)c3)cc(-c3ccc(F)cc3)c2c1` [7u, Diethyl (2-(3,4-difluorophenyl)-4-(4-fluorophenyl)quinolin-6-yl)phosphonate], the melting point lay in the range of 130 to 132 °C. This compound registered a half-maximal effective concentration (EC50) in the data set on L. infantum amastigotes of 26.4 ± 2.2 µM. Besides, the IC50 in data set [1] was greater than 50 µM. In data set [2], this compound registered an IC50 at 48 h greater than 50 µM. In the data set on murine splenocytes, the half-inhibitory concentration (IC50) is greater than 100 µM and the “SI (selectivity index)” value was greater than 3.8.

`CCOP(=O)(OCC)c1ccc2nc(-c3ccc(F)cc3)cc(-c3ccc(C)cc3)c2c1` [7v, Diethyl (2-(4-fluorophenyl)-4-(p-tolyl)quinolin-6-yl)phosphonate] gave a melting point of 153 to 155 °C. The compound also came in with an EC50 with L. infantum amastigotes of 17.6 ± 7.81 µM. The IC50 in data set [1] is 41.6 ± 10 µM. In data set [2], the 50% inhibitory concentration (IC50) at 48 h is greater than 50 µM. Further, in the data set on murine splenocytes, the 50% inhibitory concentration (IC50) came out at 11.2 ± 4.42 µM and the “SI (selectivity index)” value was determined as 0.6.

Compound `CCOP(=O)(OCC)c1ccc2nc(-c3ccc(F)c(F)c3)cc(-c3ccc(C)cc3)c2c1` [7x, Diethyl (2-(3,4-difluorophenyl)-4-(p-tolyl)quinolin-6-yl)phosphonate] gave a melting point of 158 to 160 °C. Besides, the half-maximal effective concentration (EC50) in the data set with L. infantum amastigotes came to 33 ± 6.55 µM. Besides, the half-maximal inhibitory concentration (IC50) in data set [1] was greater than 50 µM. In addition, the half-inhibitory concentration (IC50) at 48 h in data set [2] was greater than 50 µM. Besides, in the data set with murine splenocytes, the concentration for half-maximal inhibition (IC50) was found to be 32.3 ± 3.36 µM and the “SI (selectivity index)” value was found to be 1.

For the origin of these results see publication PMC8399847, “Hybrid Quinolinyl Phosphonates as Heterocyclic Carboxylate Isosteres: Synthesis and Biological Evaluation against Topoisomerase 1B (TOP1B)” (Pharmaceuticals, 2021).
